For this experiment, the target named is T1, Myosin-7 (Bos taurus, UniProt Q9BE39).
T1 construct: gene MYH7
The experiment is described as follows: Biochemical Assay. On the procedure: In our experiments, bovine skinned cardiac myofibrils were isolated from the frozen bovine left ventricle as myosin's source in the ATPase assay. […] 75 μL of a solution containing bovine cardiac myofibrils, PK/LDH, and calcium were added to a 96 well plate for a 7 point dose-response. In some circumstances, 10 point-response was used to repeat the ATPase assays on compounds of interest. Compounds were added to the myofibrils solution and incubated for 5 minutes. The enzymatic reaction was started with the addition of 75 μL of a solution containing ATP, PEP, NADH, compounds, and calcium. The ATPase activity was measured by reading absorbance at 340 nm in a PerkinElmer Victor Nivo plate reader at 25° C. in kinetic mode for 15 minutes using clear bottom plates. The slopes of the absorbance changes as a function of time for the first 10 minutes were normalized to slopes on the control wells containing all reagents, including DMSO, but without compounds.

The results in this text go back to BindingDB's records for patent US20240262804 (Hansoh Bio, 2024).

By IC50 is commonly meant the concentration needed to halve the response being measured. A higher IC50 goes with a need for much substance.

T1 sequence (Q9BE39 whole entry, looked up): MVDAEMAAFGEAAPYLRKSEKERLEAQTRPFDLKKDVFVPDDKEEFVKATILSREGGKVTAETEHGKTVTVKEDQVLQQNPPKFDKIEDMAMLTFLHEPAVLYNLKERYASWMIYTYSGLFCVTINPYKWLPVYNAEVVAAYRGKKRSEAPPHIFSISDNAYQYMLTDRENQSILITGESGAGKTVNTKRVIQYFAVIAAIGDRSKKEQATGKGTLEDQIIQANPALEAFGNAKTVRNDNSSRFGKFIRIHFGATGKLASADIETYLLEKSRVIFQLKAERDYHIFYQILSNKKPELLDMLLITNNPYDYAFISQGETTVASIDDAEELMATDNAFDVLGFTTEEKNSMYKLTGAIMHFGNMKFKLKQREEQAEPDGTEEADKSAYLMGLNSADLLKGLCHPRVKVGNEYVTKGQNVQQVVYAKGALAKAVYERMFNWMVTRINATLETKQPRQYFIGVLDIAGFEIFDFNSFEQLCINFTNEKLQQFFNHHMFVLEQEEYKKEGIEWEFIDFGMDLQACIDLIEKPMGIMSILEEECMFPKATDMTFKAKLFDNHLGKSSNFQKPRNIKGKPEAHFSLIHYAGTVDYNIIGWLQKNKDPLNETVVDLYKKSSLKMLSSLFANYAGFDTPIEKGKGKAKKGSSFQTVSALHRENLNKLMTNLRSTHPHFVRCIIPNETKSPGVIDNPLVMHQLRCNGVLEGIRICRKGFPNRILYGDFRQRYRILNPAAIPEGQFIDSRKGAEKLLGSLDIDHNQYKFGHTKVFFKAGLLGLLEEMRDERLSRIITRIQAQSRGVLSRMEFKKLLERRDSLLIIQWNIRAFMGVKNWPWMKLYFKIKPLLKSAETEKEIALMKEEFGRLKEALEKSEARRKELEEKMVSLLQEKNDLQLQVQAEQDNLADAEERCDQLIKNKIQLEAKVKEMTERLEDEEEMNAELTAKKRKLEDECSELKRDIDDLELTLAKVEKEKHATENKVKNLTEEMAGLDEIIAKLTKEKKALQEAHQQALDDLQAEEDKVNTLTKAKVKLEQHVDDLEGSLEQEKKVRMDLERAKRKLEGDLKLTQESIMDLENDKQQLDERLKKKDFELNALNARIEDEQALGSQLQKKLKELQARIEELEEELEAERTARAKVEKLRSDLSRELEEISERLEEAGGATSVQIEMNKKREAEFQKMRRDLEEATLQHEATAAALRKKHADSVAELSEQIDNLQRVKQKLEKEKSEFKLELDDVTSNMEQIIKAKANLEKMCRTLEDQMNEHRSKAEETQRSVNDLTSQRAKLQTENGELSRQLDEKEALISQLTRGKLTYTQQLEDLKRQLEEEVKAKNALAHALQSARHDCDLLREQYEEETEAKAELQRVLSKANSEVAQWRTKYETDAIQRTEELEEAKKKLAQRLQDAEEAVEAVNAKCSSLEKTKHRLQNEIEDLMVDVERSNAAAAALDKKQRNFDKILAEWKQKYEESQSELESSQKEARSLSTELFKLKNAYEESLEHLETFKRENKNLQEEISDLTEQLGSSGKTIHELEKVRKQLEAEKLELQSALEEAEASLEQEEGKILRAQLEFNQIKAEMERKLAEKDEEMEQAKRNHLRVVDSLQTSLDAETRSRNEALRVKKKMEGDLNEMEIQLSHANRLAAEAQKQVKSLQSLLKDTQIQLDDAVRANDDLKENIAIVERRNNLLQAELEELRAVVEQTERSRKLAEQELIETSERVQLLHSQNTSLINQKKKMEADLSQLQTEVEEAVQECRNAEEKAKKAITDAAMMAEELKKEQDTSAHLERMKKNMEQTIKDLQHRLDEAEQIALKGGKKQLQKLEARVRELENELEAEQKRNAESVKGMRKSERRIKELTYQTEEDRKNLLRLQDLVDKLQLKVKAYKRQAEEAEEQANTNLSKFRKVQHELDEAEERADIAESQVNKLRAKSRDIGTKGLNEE

Consider `C[C@H](Nc1nc(=O)n(-c2ccccc2)c(=O)[nH]1)C1CCCCC1` [US20240262804, Example 1], for which the IC50 stood at 8050 nM. That is a single-digit micromolar value. `Cc1cccc([C@H](C)Nc2nc(=O)n(C3CCOCC3)c(=O)[nH]2)c1` [US20240262804, Example 4] displayed an IC50 of 800 nM.

With `Cc1nn(C)cc1-c1cccc([C@H](C)Nc2nc(=O)n(C3CCOCC3)c(=O)[nH]2)c1` [US20240262804, Example 5], the IC50 is 3590 nM. This IC50 lies about 4.5-fold higher than the previous one.

`Cc1ccn(-c2cccc([C@H](C)Nc3nc(=O)n(C4CCOCC4)c(=O)[nH]3)c2)n1` [US20240262804, Example 6] gave a 50% inhibitory concentration (IC50) of 4010 nM. For `C[C@H](Nc1nc(=O)n(C2CCOCC2)c(=O)[nH]1)c1cccc(C(C)(C)O)c1` [US20240262804, Example 8], inhibition was half-maximal at 2460 nM (IC50). The same measure for `CC(C)C(O)c1cccc([C@H](C)Nc2nc(=O)n(C3CCOCC3)c(=O)[nH]2)c1` (some centres undefined) [US20240262804, Example 9]: 1180 nM; for `C[C@H](Nc1nc(=O)n(C2CCOCC2)c(=O)[nH]1)c1ccc(F)cc1Cl` [US20240262804, Example 162]: 1210 nM; for `C[C@H](Nc1nc(=O)n(C2CCOCC2)c(=O)[nH]1)c1cc(Cl)ccc1Cl` [US20240262804, Example 163]: 930 nM.

`C[C@H](Nc1nc(=O)n(CC(F)(F)F)c(=O)[nH]1)c1ccc(Cl)c(Cl)c1` [US20240262804, Example 173]: half-maximal inhibition (IC50) was put at 2850 nM.
